# Columns and labels:
# Assay type in all cases: in vivo, human patients
# [1] = Mean change in body weight from baseline in patients treated with (A); parameters: Mean change in body weight from baseline: unit not given here
# Description: (§1) To patients of severe heart failure (i.e., patient in acute heart failure or chronic heart failure in acute exacerbation, New York Heart Association Class III and IV) was administered 5-hydroxy-7-chloro-1-[2-methyl-4-(2-methylbenzoylamino)benzoyl]-2,3,4,5-tetrahydro-1H-benzazepine at a dose of 30, 60 or 90 mg/day for a period of 60 days, which period began from the duration of hospitalization to after being discharged from hospital (details thereof are shown in Table 1).
# (§2) As to the statistical analysis, the data in Table 2 was analyzed by ANOVA method, and the data in Tables 3 and 4 were analyzed by ANCOVA method, and the data in Table 5 was analyzed by Log-Rank test.
# (§3) When the dosages in this experiment were converted to a daily dose per 1 kg of body weight, they were 0.371±0.096 mg/kg (n=77) in the 30 mg-treated group, 0.769±0.205 mg/kg (n=83) in the 60 mg-treated group, and 1.149±0.283 mg/kg (n=76) in the 90 mg-treated group (all in mean±SD).
# [2] = Serum sodium concentration in patients of hyponatremia at baseline treated with (A); conditions: for Serum sodium concentration: mean ± SD
# Description: as §1
# As to the statistical analysis, the data in Table 2 was analyzed by ANOVA method, and the data in Tables 3 and 4 were analyzed by ANCOVA method, and the data in Table 5 was analyzed by Log-Rank test. […]
# [3] = Total urine output in patients treated with (A), placebo-controlled Phase IIB study; parameters: Total urine output: unit not given here
# Description: as §1, §2, §3
# [4] = Adverse events (urinary frequency) in patients treated with (A); conditions: for Urinary Frequency Event Rate (%): placebo 1.3%
# Description: as §1
# (§4) In addition, in the group treated with the lowest dose of 30 mg, the urinary frequency event rate as an adverse experience was lower (Table 6), and the discontinued rate due to adverse experiences was lower (Table 7), as compared with the data of the groups treated with higher doses.
# [5] = Discontinued cases due to adverse experiences in patients treated with (A); conditions: for Discontinuation due to Adverse Experience Event Rate (%): placebo 15.0%
# Description: as §1, §4
# [6] = system: patients of severe heart failure; experiment: Mortality of the patients treated with (A); conditions: for Mortality Event Rate (%): placebo 8.7%; for Number off Death: on therapy up to 60 days
# Description: as §1, §2
# [7] = 30 mg group compared with groups treated with higher doses
# [8] = 30 mg/day oral, 78 patients randomized
# [9] = 60 mg/day oral, 84 patients randomized
# [10] = 90 mg/day oral, 77 patients randomized
compound,measurement,setting,value
"Cc1ccccc1C(=O)Nc1ccc(C(=O)N2CCCC(O)c3cc(Cl)ccc32)c(C)c1 (stereo not drawn) [(A), 5-hydroxy-7-chloro-1-[2-methyl-4-(2-methylbenzoylamino)benzoyl]-2,3,4,5-tetrahydro-1H-benzazepine]",body weight (in words),[1]; 30 mg-treated group,decreased
same,Mean change in body weight from baseline,"[1]; 30 mg/day oral, Day 1, mean ± SD, n=76",−2.14 ± 2.63
same,Mean change in body weight from baseline,"[1]; 30 mg/day oral, Day 2, mean ± SD, n=63",−3.49 ± 3.80
same,Mean change in body weight from baseline,"[1]; 30 mg/day oral, Day 3, mean ± SD, n=49",−4.78 ± 4.14
same,Mean change in body weight from baseline,"[1]; 30 mg/day oral, Discharge, mean ± SD, n=76",−4.37 ± 4.69
same,Mean change in body weight from baseline,"[1]; 30 mg/day oral, Last Visit, mean ± SD, n=76",−2.42 ± 5.37
same,Mean change in body weight from baseline,"[1]; 30 mg/day oral, outpatient Week 1, mean ± SD, n=65",−2.71 ± 4.93
same,Mean change in body weight from baseline,"[1]; 30 mg/day oral, outpatient Week 7, mean ± SD, n=54",−2.12 ± 5.16
same,Mean change in body weight from baseline,"[1]; 60 mg/day oral, Day 1, mean ± SD, n=76",−2.10 ± 1.80
same,Mean change in body weight from baseline,"[1]; 60 mg/day oral, Day 2, mean ± SD, n=65",−3.03 ± 2.48
same,Mean change in body weight from baseline,"[1]; 60 mg/day oral, Day 3, mean ± SD, n=47",−3.93 ± 3.33
same,Mean change in body weight from baseline,"[1]; 60 mg/day oral, Discharge, mean ± SD, n=82",−4.60 ± 4.67
same,Mean change in body weight from baseline,"[1]; 60 mg/day oral, Last Visit, mean ± SD, n=82",−3.60 ± 6.38
same,Mean change in body weight from baseline,"[1]; 60 mg/day oral, outpatient Week 1, mean ± SD, n=59",−2.73 ± 5.45
same,Mean change in body weight from baseline,"[1]; 60 mg/day oral, outpatient Week 7, mean ± SD, n=54",−2.87 ± 6.67
same,Mean change in body weight from baseline,"[1]; 90 mg/day oral, Day 1, mean ± SD, n=74",−1.90 ± 2.87
same,Mean change in body weight from baseline,"[1]; 90 mg/day oral, Day 2, mean ± SD, n=61",−2.84 ± 3.16
same,Mean change in body weight from baseline,"[1]; 90 mg/day oral, Day 3, mean ± SD, n=45",−2.65 ± 4.22
same,Mean change in body weight from baseline,"[1]; 90 mg/day oral, Discharge, mean ± SD, n=76",−3.75 ± 4.18
same,Mean change in body weight from baseline,"[1]; 90 mg/day oral, Last Visit, mean ± SD, n=76",−2.39 ± 5.20
same,Mean change in body weight from baseline,"[1]; 90 mg/day oral, outpatient Week 1, mean ± SD, n=53",−3.23 ± 4.46
same,Mean change in body weight from baseline,"[1]; 90 mg/day oral, outpatient Week 7, mean ± SD, n=53",−2.23 ± 5.19
same,Serum sodium concentration,"[2]; 30 mg group, Baseline, patients of hyponatremia at baseline, n=15",132.13 ± 3.44 mEq/L
same,Serum sodium concentration,"[2]; 30 mg/day oral, Day 1, patients of hyponatremia at baseline, n=15",136.00 ± 3.96 mEq/L
same,Serum sodium concentration,"[2]; 30 mg/day oral, Day 2, patients of hyponatremia at baseline, n=11",135.09 ± 5.07 mEq/L
same,Serum sodium concentration,"[2]; 30 mg/day oral, Day 3, patients of hyponatremia at baseline, n=8",135.13 ± 5.38 mEq/L
same,Serum sodium concentration,"[2]; 30 mg/day oral, Discharge, patients of hyponatremia at baseline, n=15",136.13 ± 4.61 mEq/L
same,Serum sodium concentration,"[2]; 30 mg/day oral, Last Visit, patients of hyponatremia at baseline, n=15",137.00 ± 5.04 mEq/L
same,Serum sodium concentration,"[2]; 30 mg/day oral, outpatient Week 1, patients of hyponatremia at baseline, n=12",138.25 ± 4.22 mEq/L
same,Serum sodium concentration,"[2]; 30 mg/day oral, outpatient Week 7, patients of hyponatremia at baseline, n=10",137.60 ± 4.65 mEq/L
same,Serum sodium concentration,"[2]; 60 mg group, Baseline, patients of hyponatremia at baseline, n=22",130.86 ± 4.00 mEq/L
same,Serum sodium concentration,"[2]; 60 mg/day oral, Day 1, patients of hyponatremia at baseline, n=22",135.77 ± 6.16 mEq/L
same,Serum sodium concentration,"[2]; 60 mg/day oral, Day 2, patients of hyponatremia at baseline, n=17",137.29 ± 3.02 mEq/L
same,Serum sodium concentration,"[2]; 60 mg/day oral, Day 3, patients of hyponatremia at baseline, n=13",138.62 ± 4.44 mEq/L
same,Serum sodium concentration,"[2]; 60 mg/day oral, Discharge, patients of hyponatremia at baseline, n=22",137.18 ± 4.56 mEq/L
same,Serum sodium concentration,"[2]; 60 mg/day oral, Last Visit, patients of hyponatremia at baseline, n=22",136.18 ± 5.94 mEq/L
same,Serum sodium concentration,"[2]; 60 mg/day oral, outpatient Week 1, patients of hyponatremia at baseline, n=16",136.88 ± 5.82 mEq/L
same,Serum sodium concentration,"[2]; 60 mg/day oral, outpatient Week 7, patients of hyponatremia at baseline, n=11",139.36 ± 4.76 mEq/L
same,Serum sodium concentration,"[2]; 90 mg group, Baseline, patients of hyponatremia at baseline, n=15",133.07 ± 2.52 mEq/L
same,Serum sodium concentration,"[2]; 90 mg/day oral, Day 1, patients of hyponatremia at baseline, n=15",137.13 ± 4.82 mEq/L
same,Serum sodium concentration,"[2]; 90 mg/day oral, Day 2, patients of hyponatremia at baseline, n=15",137.00 ± 4.60 mEq/L
same,Serum sodium concentration,"[2]; 90 mg/day oral, Day 3, patients of hyponatremia at baseline, n=11",136.45 ± 4.59 mEq/L
same,Serum sodium concentration,"[2]; 90 mg/day oral, Discharge, patients of hyponatremia at baseline, n=15",137.13 ± 3.02 mEq/L
same,Serum sodium concentration,"[2]; 90 mg/day oral, Last Visit, patients of hyponatremia at baseline, n=15",136.60 ± 5.17 mEq/L
same,Serum sodium concentration,"[2]; 90 mg/day oral, outpatient Week 1, patients of hyponatremia at baseline, n=8",136.13 ± 3.64 mEq/L
same,Serum sodium concentration,"[2]; 90 mg/day oral, outpatient Week 7, patients of hyponatremia at baseline, n=6",138.00 ± 5.73 mEq/L
same,serum sodium concentration (in words),[2]; patients of hyponatremia at baseline (less than 136 mEq/L),increase of serum sodium concentration
same,total urine output (in words),[3]; 30 mg-treated group,increased
same,Total urine output,"[3]; 30 mg/day oral, Day 1, mean ± SD, n=73",4056.16 ± 2310.23
same,Total urine output,"[3]; 30 mg/day oral, Day 2, mean ± SD, n=67",3905.61 ± 1942.03
same,Total urine output,"[3]; 30 mg/day oral, Day 3, mean ± SD, n=52",3579.04 ± 1867.86
same,Total urine output,"[3]; 30 mg/day oral, Day 6, mean ± SD, n=33",3146.67 ± 1618.09
same,Total urine output,"[3]; 30 mg/day oral, Day 7, mean ± SD, n=16",2662.81 ± 1507.51
same,Total urine output,"[3]; 30 mg/day oral, Day 9, mean ± SD, n=5",2908.00 ± 475.59
same,Total urine output,"[3]; 60 mg/day oral, Day 1, mean ± SD, n=82",4175.15 ± 2695.44
same,Total urine output,"[3]; 60 mg/day oral, Day 2, mean ± SD, n=74",3699.26 ± 2094.02
same,Total urine output,"[3]; 60 mg/day oral, Day 3, mean ± SD, n=54",3420.41 ± 1902.77
same,Total urine output,"[3]; 60 mg/day oral, Day 6, mean ± SD, n=32",3684.56 ± 2472.45
same,Total urine output,"[3]; 60 mg/day oral, Day 7, mean ± SD, n=17",4230.00 ± 1691.43
same,Total urine output,"[3]; 60 mg/day oral, Day 9, mean ± SD, n=11",3753.18 ± 2415.48
same,Total urine output,"[3]; 90 mg/day oral, Day 1, mean ± SD, n=73",4127.27 ± 2050.81
same,Total urine output,"[3]; 90 mg/day oral, Day 2, mean ± SD, n=64",3961.73 ± 2129.11
same,Total urine output,"[3]; 90 mg/day oral, Day 3, mean ± SD, n=50",4069.32 ± 2306.07
same,Total urine output,"[3]; 90 mg/day oral, Day 6, mean ± SD, n=30",4188.23 ± 2275.15
same,Total urine output,"[3]; 90 mg/day oral, Day 7, mean ± SD, n=17",3915.12 ± 2101.53
same,Total urine output,"[3]; 90 mg/day oral, Day 9, mean ± SD, n=7",2421.43 ± 1391.12
same,urinary frequency event rate as an adverse experience (in words),[4]; [7],lower
same,Adverse Event Urinary Frequency (number of patients),"[4]; 30 mg/day oral, 78 patients",1
same,Urinary Frequency Event Rate (%),"[4]; 30 mg/day oral, 78 patients",1.3%
same,Adverse Event Urinary Frequency (number of patients),"[4]; 60 mg/day oral, 84 patients",3
same,Urinary Frequency Event Rate (%),"[4]; 60 mg/day oral, 84 patients",3.6%
same,Adverse Event Urinary Frequency (number of patients),"[4]; 90 mg/day oral, 76 patients",4
same,Urinary Frequency Event Rate (%),"[4]; 90 mg/day oral, 76 patients",5.3%
same,discontinued rate due to adverse experiences (in words),[5]; [7],lower
same,Discontinued cases due to Adverse Experience (number),[5]; [8],14
same,Discontinuation due to Adverse Experience Event Rate (%),[5]; [8],17.9%
same,Discontinued cases due to Adverse Experience (number),[5]; [9],25
same,Discontinuation due to Adverse Experience Event Rate (%),[5]; [9],29.8%
same,Discontinued cases due to Adverse Experience (number),[5]; [10],17
same,Discontinuation due to Adverse Experience Event Rate (%),[5]; [10],22.1%
same,mortality rate vs control group (in words),"[6]; 30 mg-treated group, entire period, Log-Rank test",significantly lower
same,Mortality Event Rate (%),[6]; [8],3.8%
same,Number off Death,[6]; [8],3
same,Mortality Event Rate (%),[6]; [9],9.5%
same,Number off Death,[6]; [9],8
same,Mortality Event Rate (%),[6]; [10],2.5%
same,Number off Death,[6]; [10],2

# — patent publication US7423032B2, “Method for treating severe heart failure and medicament therefor” (Otsuka Pharmaceutical Co., Ltd., priority 2003, dated 2008)
